For 15 compounds, pest or weed control, melting point and inhibition of growth results are on record in US11185074B2, “Microbiocidal quinoline (thio)carboxamide derivatives” (SYNGENTA PARTICIPATIONS AG, priority 2017, dated 2021).

Series [1] has as its system Fusarium culmorum. As to the kind of experiment: whole plant or invertebrate. The series is classed as in vivo, Fusarium culmorum on wheat spikelets cv. Monsun. To be noted: in Triticum aestivum, read-out: control of Fusarium culmorum.
The subject of series [2] is Fusarium culmorum. As to the kind of experiment: microbe, parasite or virus in culture. The conditions noted are these: read-out: control of Fusarium culmorum. The series is classed as cell-based.
For series [3], the system named is Glomerella lagenarium (Colletotrichum lagenarium). As to the kind of experiment: Glomerella lagenarium (Colletotrichum lagenarium) / liquid culture (anthracnose). The series is classed as cell-based. The conditions noted are these: Colletotrichum orbiculare; 20 ppm; liquid culture, inhibition of growth photometrically 3-4 days after application; compared to untreated control; read-out: control of Glomerella lagenarium.

For series [4], the system named is Monographella nivalis (Microdochium nivale). As to the kind of experiment: Monographella nivalis (Microdochium nivale) / liquid culture (foot rot cereals). To be noted: 96 h, inhibition of growth photometrically 4-5 days after application, compared to untreated control. The series is classed as cell-based.
The subject of series [5] is Magnaporthe grisea (Pyricularia oryzae). Nature of the series: microbe, parasite or virus in culture. The series is classed as cell-based. The conditions noted are these: 72 h, read-out: control of Magnaporthe grisea.
Series [6] has as its system Gibberella zeae (Fusarium graminearum). As to the kind of experiment: whole plant or invertebrate. In kind it is in vivo. To be noted: in Triticum aestivum, 144 h, read-out: control of Gibberella zeae.
In series [7] the test system is Botryotinia fuckeliana (Botrytis cinerea). Nature of the series: Botryotinia fuckeliana (Botrytis cinerea) / liquid culture (gray mould). The series is classed as cell-based. To be noted: 72 h, 20 ppm, liquid culture, inhibition of growth photometrically 3-4 days after application, compared to untreated control, read-out: control of Botryotinia fuckeliana.
For series [8], the system named is Magnaporthe grisea (Pyricularia oryzae). As to the kind of experiment: whole plant or invertebrate. The series is classed as in vivo. To be noted: foliar, read-out: control of Magnaporthe grisea.
A further series concerns Sclerotinia sclerotiorum. As to the kind of experiment: Sclerotinia sclerotiorum / liquid culture (cottony rot). To be noted: 72 h, read-out: control of Sclerotinia sclerotiorum.

Description for Sclerotinia sclerotiorum: Sclerotinia sclerotiorum/Liquid Culture (Cottony Rot)
Mycelia fragments of a newly grown liquid culture of the fungus are directly mixed into nutrient broth (Vogels broth). After placing a (DMSO) solution of test compound into a microtiter plate (96-well format) the nutrient broth containing the fungal material is added. The test plates are incubated at 24° C. and the inhibition of growth is determined photometrically 3-4 days after application.

The melting point is the temperature of the solid-liquid transition. For `CC(C)(C)C(CCc1ccccc1)NC(=O)c1cnc2c(F)cccc2c1` (centres unmarked) [E-14], the melting point lay within 55 to 65 °C. The pest or weed control at 200 ppm in the series with Fusarium culmorum [1] was no less than 80%. Also, the inhibition of growth at 20 ppm in the series with Fusarium culmorum [2] is no less than 80%. The inhibition of growth at 20 ppm in [3] is no less than 80%. The same compound registered an inhibition of growth at 20 ppm in [4] of no less than 80%. Further, the inhibition of growth at 20 ppm in series [5] was no less than 80%. In addition, the pest or weed control at 200 ppm in [6] is no less than 80%. In addition, the inhibition of growth at 20 ppm in [7] was no less than 80%.

For the compound `CC(C)=C(F)CC(CC(C)C)NC(=O)c1cnc2c(F)cccc2c1` (centres unmarked) [E-18], the melting point fell in the range of 75 to 76 °C. Further, in the series on Fusarium culmorum [1], the pest or weed control at 200 ppm is no less than 80%. The inhibition of growth at 20 ppm with Fusarium culmorum [2] is no less than 80%. In series [3], the inhibition of growth at 20 ppm is no less than 80%. The same compound yielded an inhibition of growth at 20 ppm in series [4] of no less than 80%. In series [5], the inhibition of growth at 20 ppm was no less than 80%. Also, the pest or weed control at 200 ppm in series [6] was no less than 80%. Moreover, the inhibition of growth at 20 ppm in series [7] is no less than 80%.

With `CC(C)(CCc1cccc(C(F)(F)F)c1)NC(=O)c1cnc2c(F)cccc2c1` [E-27], the inhibition of growth at 20 ppm (in the series with Fusarium culmorum [2]; in series [3]; in [4]; in series [7]) was no less than 80% throughout. The pest or weed control at 200 ppm in series [8] was no less than 80%.

For `C=C(Cl)CC(C)(CC1CCCCC1)NC(=O)c1cnc2c(F)cccc2c1` (centres unmarked) [E-37], the melting point lay in the range of 109 to 111 °C. For the same compound, the pest or weed control at 200 ppm in the series with Fusarium culmorum [1] was no less than 80%. Also, the inhibition of growth at 20 ppm with Fusarium culmorum [2] was no less than 80%. Further, in [3], the inhibition of growth at 20 ppm is no less than 80%. Moreover, the inhibition of growth at 20 ppm in series [4] is no less than 80%. For the same compound, in [5], the inhibition of growth at 20 ppm was no less than 80%. In the series with Sclerotinia sclerotiorum, the inhibition of growth at 20 ppm was no less than 80%. In [8], the pest or weed control at 200 ppm is no less than 80%. Further, in [7], the inhibition of growth at 20 ppm was no less than 80%.

As to `CCCC(C)CC(C)NC(=O)c1cnc2c(C)cccc2c1` (centres unmarked) [E-42], the inhibition of growth at 20 ppm (in the series with Fusarium culmorum [2]; in series [3]; in series [4]; in series [7]) was no less than 80% in each case. Moreover, the pest or weed control at 200 ppm in [8] was no less than 80%.

Consider `CCCC(C)CC(C)(CC(F)(F)F)NC(=O)c1cnc2c(C)cccc2c1` (centres unmarked) [E-47], for which the pest or weed control at 200 ppm (in the series with Fusarium culmorum [1]; in series [8]) was no less than 80% throughout. Moreover, the inhibition of growth at 20 ppm (with Fusarium culmorum [2]; in [3]; in [4]; in [5]; in series [7]) was no less than 80% throughout.

Compound `C=C(C)CC(C)(CC(=C)C)NC(=O)c1cnc2c(F)c(F)ccc2c1` [E-56] yielded a melting point of 117 to 120 °C. The inhibition of growth at 20 ppm with Fusarium culmorum [2] was no less than 80%. The inhibition of growth at 20 ppm in series [3] was no less than 80%. This compound displayed an inhibition of growth at 20 ppm in series [4] of no less than 80%. Besides, the inhibition of growth at 20 ppm in series [5] is no less than 80%. In addition, the inhibition of growth at 20 ppm with Sclerotinia sclerotiorum is no less than 80%. Further, the pest or weed control at 200 ppm in series [8] is no less than 80%. The inhibition of growth at 20 ppm in series [7] was no less than 80%.

Take `CC(CC1CCCC1)(CC(F)(F)F)NC(=O)c1cnc2c(F)c(F)ccc2c1` (centres unmarked) [E-57]: the melting point was in the range of 115 to 116 °C. Moreover, the inhibition of growth at 20 ppm in the series on Fusarium culmorum [2] was no less than 80%. The inhibition of growth at 20 ppm in series [3] was no less than 80%. In series [4], this compound came in with an inhibition of growth at 20 ppm of no less than 80%. Further, the inhibition of growth at 20 ppm in series [5] is no less than 80%. Further, the inhibition of growth at 20 ppm with Sclerotinia sclerotiorum is no less than 80%. Moreover, the pest or weed control at 200 ppm in series [8] was no less than 80%. Further, the inhibition of growth at 20 ppm in series [7] is no less than 80%.

The compound `CC(CC1CCCCC1)(CC(F)(F)F)NC(=O)c1cnc2c(F)c(F)ccc2c1` (centres unmarked) [E-58] registered a melting point of 99 to 102 °C. Moreover, the inhibition of growth at 20 ppm in the series on Fusarium culmorum [2] was no less than 80%. In addition, in [3], the inhibition of growth at 20 ppm is no less than 80%. In addition, the inhibition of growth at 20 ppm in series [4] was no less than 80%. In series [5], the inhibition of growth at 20 ppm was no less than 80%. For the same compound, the inhibition of growth at 20 ppm with Sclerotinia sclerotiorum was no less than 80%. Moreover, the pest or weed control at 200 ppm in [8] is no less than 80%. In series [7], the inhibition of growth at 20 ppm is no less than 80%.

Turning to `CC(CC1CCCC1)(CC(F)(F)F)NC(=O)c1cnc2c(F)cccc2c1` (centres unmarked) [E-59], the melting point fell in the range of 100 to 102 °C. Besides, in the series with Fusarium culmorum [1], the pest or weed control at 200 ppm is no less than 80%. Besides, in the series on Fusarium culmorum [2], the inhibition of growth at 20 ppm was no less than 80%. In [3], the inhibition of growth at 20 ppm is no less than 80%. The inhibition of growth at 20 ppm in [4] was no less than 80%. The inhibition of growth at 20 ppm in series [5] is no less than 80%. Moreover, the pest or weed control at 200 ppm in series [6] is no less than 80%. For the same compound, the inhibition of growth at 20 ppm with Sclerotinia sclerotiorum is no less than 80%. The pest or weed control at 200 ppm in [8] is no less than 80%. For the same compound, the inhibition of growth at 20 ppm in [7] was no less than 80%.

In the case of `Cc1cccc2cc(C(=O)NC(C)(CC3CCCCC3)CC(F)(F)F)cnc12` (centres unmarked) [E-61], the melting point was in the range of 107 to 110 °C. Also, in the series on Fusarium culmorum [2], the inhibition of growth at 20 ppm was no less than 80%. Moreover, the inhibition of growth at 20 ppm in series [3] is no less than 80%. This compound yielded an inhibition of growth at 20 ppm in [4] of no less than 80%. For the same compound, the inhibition of growth at 20 ppm in series [5] was no less than 80%. Further, the inhibition of growth at 20 ppm in the series on Sclerotinia sclerotiorum was no less than 80%. The pest or weed control at 200 ppm in series [8] is no less than 80%. For the same compound, the inhibition of growth at 20 ppm in [7] is no less than 80%.

`CC(CC1CCCCC1)(CC(F)(F)F)NC(=O)c1cnc2c(F)cccc2c1` (centres unmarked) [E-62] gave a melting point of 55 to 76 °C. Moreover, in the series with Fusarium culmorum [2], the inhibition of growth at 20 ppm was no less than 80%. In addition, the inhibition of growth at 20 ppm in series [3] is no less than 80%. Also, the inhibition of growth at 20 ppm in [4] is no less than 80%. Besides, in series [5], the inhibition of growth at 20 ppm was no less than 80%. Besides, the inhibition of growth at 20 ppm in the series with Sclerotinia sclerotiorum was no less than 80%. Further, in series [8], the pest or weed control at 200 ppm was no less than 80%. In series [7], the inhibition of growth at 20 ppm was no less than 80%.

`CC1(C[C@@](C)(CC(F)(F)F)NC(=O)c2cnc3c(F)cccc3c2)CC1` [F-2, 8-fluoro-N-[(1S)-3,3,3-trifluoro-1-methyl-1-[(1-methylcyclo-propyl)meth-yl]propyl]quinoline-3-carboxamide]: the pest or weed control at 200 ppm (in the series with Fusarium culmorum [1]; in [6]; in series [8]) was no less than 80% throughout. Moreover, the inhibition of growth at 20 ppm (in the series on Fusarium culmorum [2]; in series [3]; in [4]; in series [5]; in series [7]) was no less than 80% in each case.

On to `C[C@](CC1CCCCC1)(CC(F)(F)F)NC(=O)c1cnc2c(F)cccc2c1` [F-3, N-[(1S)-1-(cyclohexylmeth-yl)-3,3,3-trifluoro-1-methyl-propyl]-8-fluoro-quinoline-3-carboxamide], for which the melting point fell in the range of 132 to 133 °C. The inhibition of growth at 20 ppm in the series on Fusarium culmorum [2] is no less than 80%. Besides, the inhibition of growth at 20 ppm in series [3] was no less than 80%. For the same compound, the inhibition of growth at 20 ppm in series [4] was no less than 80%. For the same compound, the inhibition of growth at 20 ppm in series [5] was no less than 80%. In the series on Sclerotinia sclerotiorum, the inhibition of growth at 20 ppm was no less than 80%. The pest or weed control at 200 ppm in series [8] is no less than 80%. Moreover, in series [7], the inhibition of growth at 20 ppm is no less than 80%.

Consider `C[C@@](CC1CCCC1)(CC(F)(F)F)NC(=O)c1cnc2c(F)cccc2c1` [F-4, N-[(1R)-1-(cyclopentylmeth-yl)-3,3,3-trifluoro-1-methyl-propyl]-8-fluoro-quinoline-3-carboxamide], for which the melting point lay in the range of 100 to 101 °C. For the same compound, the inhibition of growth at 20 ppm in the series on Fusarium culmorum [2] is no less than 80%. Also, the inhibition of growth at 20 ppm in [3] is no less than 80%. In [4], this compound registered an inhibition of growth at 20 ppm of no less than 80%. For the same compound, in series [5], the inhibition of growth at 20 ppm is no less than 80%. Besides, in the series with Sclerotinia sclerotiorum, the inhibition of growth at 20 ppm was no less than 80%. For the same compound, the pest or weed control at 200 ppm in series [8] is no less than 80%. Moreover, the inhibition of growth at 20 ppm in [7] is no less than 80%.
